Several values for one entry are separate records, joined by “and”; a condition that tells them apart may be missing. Equal values may be shown once. Entries after “also recorded” stand apart in the source; their conditions may differ.
Assays:
[1] = system: Hela cells; assay: Antiproliferative activity, MTS assay, HeLa cells; type: cell-based, Human; settings: for IC50: 72 h incubation, MTS; for cytotoxicity in HeLa cells over a series of concentrations (in words): FIG. 18
Method: (§1) Cell culture Human cervix HeLa cell line was obtained from ATCC (Rockville, Md.) and cultured in minimum essential medium (MEM) with L-glutamine (2 mM), Earle's BSS and sodium bicarbonate (1.5 g/L), supplemented with 10% fetal bovine serum (FBS), non-essential amino acids (0.1 mM), sodium pyruvate (1 mM) and antibiotic/antimycotic solution in a humidified atmosphere with 5% CO2 at 37° C. […] Lung fibroblast MRC-5 cell line was obtained from ATCC (Rockville, Md.) and cultured in ATCC formulated EMEM, supplemented with 10% fetal bovine serum (FBS) in a humidified atmosphere with 5% CO2 at 37° C.
(§2) Antiproliferative Activity. Cells were seeded onto 96-well plate at density of 2,000 cells for Hela cells or 5,000 cells for HT29 cells or 5,000 cells for MRC-5 per well in 0.1 mL complete medium and allowed to attach for 24 h. Varying concentrations of the test compounds in the final volume of 0.1 mL complete medium were then added in at least five series dilutions and incubated for 72 h. To measure cell proliferation, the Cell Titer 96 aqueous nonreactive cell proliferation assay (Promega Life Sciences, Madison, Wis.) was used according to the manufacturer's instructions. Briefly, MTS (2 mg/mL) and PMS (0.92 mg/ml) were mixed in a ratio of 20:1. An aliquot (20 μL) of the MTS/PMS mixture was added into each well, and the plate was incubated for 3 h at 37° C. Optical absorbance at 490 nm was then recorded with an enzyme-linked immunosorbent assay (ELISA) microtiter plate reader (Biotek). Each experiment was done at least in triplicate. Antiproliferative activity of the test compounds was expressed as the fraction of optical densities of treated the cells relative to the untreated solvent controls.^31 The data were plotted in GraphPad Prizm 3.0. Nonlinear regression analysis was used to determine IC50 values.
(§3) Cell culture. Human cervix HeLa cell line was obtained from ATCC (Rockville, Md.) and cultured in minimum essential medium (MEM) with L-glutamine (2 mM), Earle's BSS and sodium bicarbonate (1.5 g/L), supplemented with 10% fetal bovine serum (FBS), non-essential amino acids (0.1 mM), sodium pyruvate (1 mM) and antibiotic/antimycotic solution in a humidified atmosphere with 5% CO2 at 37° C.
as §2, with “activity.” for “Activity.”, “cells” for “cells or 5,000 cells for MRC-5”, “controls.” for “controls.^31”

[2] = system: HT29 cells; assay: Antiproliferative activity, MTS assay, HT29 cells; type: cell-based, Human
Method: as §1, §2, §3
as §2, with “activity.” for “Activity.”, “cells” for “cells or 5,000 cells for MRC-5”, “controls.” for “controls.^31”

[3] = In vitro serum stability of 64Cu-labeled ligands in rat serum (radio-TLC); type: in vitro ADME; settings: for Purity (serum stability, radio-TLC): 37° C., n=3; for 64Cu dissociated from the complex: in 24 hours; for stability in rat serum (in words): 48 hours
Method: The radiolabeling reactions of the ligands with ^64Cu were performed at elevated temperatures to ensure complete complex formation. At the no-carrier-added (NCA) level, all ligands were successfully labeled with ^64Cu in quantitative radiochemical yields (100%) as determined by radio-TLC. […] The ^64Cu-labeled complexes were freshly prepared for their serum stability evaluation, which was assessed by measuring the transfer of radionuclide from the complex to serum proteins over 24 hours or 48 hours.
In vitro serum stability: To 100 μL of rat serum, 10 μL of each ^64Cu-labeled complex was added (n=3 per complex). DOTA labeled with ^64Cu was used as a positive control. The resulting solutions were incubated at 37° C. in a water-bath. At 1 h, 4 h, 24 h and 48 h after the complex addition to rat serum, the solutions were sampled and analyzed by radio-TLC.

[4] = In vitro serum stability of 177Lu-labeled complexes (radio-TLC, HPLC); type: in vitro ADME, mouse; parameters: Radiolabled Complex, in vitro serum stability (Table 1): unit not given here; settings: for Radiolabled Complex, in vitro serum stability (Table 1): 37° C.
Method: The new ligand DEPA was radiolabeled with ^177Lu and ^205/6Bi (a surrogate of ^212Bi and ^213Bi) and the corresponding radiolabeled complexes were evaluated for in vitro serum stability as described previously. For comparison, DOTA was also radiolabeled with ^177Lu. DEPA and DOTA (0.25 M NH4OAc buffer, pH 4.0) was radiolabeled with ^177Lu at 45° C. for 0.5 h to afford ^177Lu-DEPA (Rf=0.6) and ^177Lu-DOTA (Rf=0.4) in the respective radiochemical yield of 90% and 95% as determined by radio-TLC. DEPA (0.25 M NH4OAc buffer, pH 5.0) was successfully radiolabeled with ^205/6Bi at room temperature for 1 h to afford ^205/6Bi-DEPA in 96% yield (radio-TLC). ^177Lu-DOTA, 177Lu-DEPA, and ^205/6Bi-DEPA formed were purified from unbound ^205/6Bi by ion-exchange chromatography using a Chelex-100 column (1 mL volume bed, 100-200 mesh, Na^+ form, Bio-Rad, Richmond, Calif.) eluted with PBS (pH 7.4). In vitro serum stability of the purified radiolabeled complexes was performed to determine if DEPA or DOTA radiolabeled with ^177Lu or ^205/6Bi remained stable without loss of the radionuclide in human serum. This was assessed by measuring the transfer of radionuclide from the complex to serum proteins. […] However, ˜10% of the radioactivity was released from ^177Lu-DOTA over 4 days.
In vitro serum stability of the radiolabeled metal complexes. An aliquot of 3.7 MBq of the purified ^177Lu-labeled ligands was added to 0.5 mL of mouse serum (Sigma, St. Louis, Mo.) and 0.1% NaN3. The resulting mixture was incubated at 37° C. for 96 h. Aliquots of 2 μL of the resulting mixture were analyzed by radio-TLC and HPLC at different time points, 0, 0.25, 0.5, 1, 2, 4, 6, 24, 48, and 96 h of incubation. The stability of purified ^205/6Bi-DEPA was evaluated in human serum (Gemini Bioproducts, Woodland, Calif.) for 14 days by measuring the transfer of the radionuclide from the complex to serum proteins as monitored by SE-HPLC. Radiolabeled complexes were diluted to an appropriate volume that allowed for preparation of multiple samples containing 5-10 μCi and filter-sterilized using a Millex-GV 0.22 μm filter. 140 μL of this stock solution was then mixed with 1400 μL of sterile normal human serum or saline. Aliquots (200 μL) were drawn and separated into individual tubes for subsequent analysis using aseptic technique. The samples were incubated at 37° C., and at designated intervals, subjected to analysis by SE-HPLC. Samples were loaded onto the HPLC and eluted with PBS, pH 7.4 isocratically at 1 mL/min. […] Radioactivity associated with a transfer to serum proteins generally appeared between ˜4.5-8 min.

[5] = Homo sapiens, HT-29, 72 h incubation

O=C(O)CN1CCN(CCN(CC(=O)O)Cc2ccccc2)CCN(CC(=O)O)CC1 [Bn-NE3TA]
IC50 [1]: 4.4 ± 0.9 µM | cytotoxicity in HeLa cells over a series of concentrations (in words) [1]: highest activity against HeLa cells | IC50 ([2]; 72 h incubation): 2.6 ± 0.2 µM

O=C(O)CNC(Cc1ccc([N+](=O)[O-])cc1)CN1CCN(CC(=O)O)CCN(CC(=O)O)CC1 (centres unmarked) [C-NE3TA, {4-Carboxymethyl-7-[2-(carboxymethyl-amino)-3-(4-nitro-phenyl)-propyl]-[1,4,7]triazonan-1-yl}-acetic acid]
IC50 ([1]; Homo sapiens): 7.1 ± 0.1 µM | IC50 [2, 5]: 5 ± 0.7 µM

O=C(O)CN1CCN(CC(=O)O)CCN(CC(Cc2ccc([N+](=O)[O-])cc2)N(CC(=O)O)CC(=O)O)CC1 (centres unmarked) [C-NETA]
IC50 [1]: > 100 µM | cytotoxicity in HeLa cells over a series of concentrations (in words) [1]: virtually no inhibitory activity | IC50 ([2]; 72 h incubation): 45.7 ± 4 µM

CC(CCC(=O)Nc1ccc(CC(CN2CCN(CC(=O)O)CCN(CC(=O)O)CC2)NCC(=O)O)cc1)C1CCC2C3CCC4CC(O)CCC4(C)C3CC(O)C12C (centres unmarked) [DCA-NE3TA, [4-Carboxymethyl-7-(2-(carboxymethyl-amino)-3-{4-[4-(3,12-dihydroxy-10,13-dimethylhexadecahydro-cyclopenta[a]phenanthren-17-yl)-pentanoylamino]-phenyl}-propyl)-[1,4,7]triazonan-1-yl]-acetic acid]
sensitivity of HeLa cells relative to DTPA [1]: approximately 40 fold | IC50 ([1]; Homo sapiens): 6.3 ± 0.1 µM | IC50 [2, 5]: 7.5 ± 0.3 µM

O=C(O)CN1CCN(CCN(CC(=O)O)Cc2ccc([N+](=O)[O-])cc2)CCN(CC(=O)O)CC1 [N-NE3TA]
IC50 ([1]; Homo sapiens): 8.4 ± 0.4 µM | IC50 [2, 5]: 6.8 ± 0.4 µM

O=C(O)CNCCN1CCN(CC(=O)O)CCN(CC(=O)O)CC1 [NE3TA, (4-Carboxymethyl-7-[2-(carboxymethyl-amino)-ethyl]-[1,4,7]trizonan-1-yl)-acetic acid]
IC50 ([1]; Homo sapiens): 5.7 ± 0.3 µM | IC50 [2, 5]: 4.7 ± 0.3 µM

O=C(O)CN1CCN(CCO)CCN(CC(=O)O)CC1.[64Cu] [^64Cu-NBEA]
Purity (serum stability, radio-TLC) ([3]; incubation time 1 h): 100 ± 0.0 | Purity (serum stability, radio-TLC) ([3]; incubation time 4 h): 100 ± 0.0 | Purity (serum stability, radio-TLC) ([3]; incubation time 24 h): 45.3 ± 9.8 | 64Cu dissociated from the complex [3]: 54%

O=C(O)CN1CCN(CCCO)CCN(CC(=O)O)CC1.[64Cu] [^64Cu-NBPA]
Purity (serum stability, radio-TLC) ([3]; incubation time 1 h): 99.6 ± 0.7 | Purity (serum stability, radio-TLC) ([3]; incubation time 4 h): 97.5 ± 4.4 | Purity (serum stability, radio-TLC) ([3]; incubation time 24 h): 70.5 ± 6.5 | 64Cu dissociated from the complex [3]: 29%

O=C(O)CN1CCN(CCN(CC(=O)O)Cc2ccccc2)CCN(CC(=O)O)CC1.[64Cu] [^64Cu-NE3TA-Bn]
Purity (serum stability, radio-TLC) ([3]; incubation time 1 h): 100 ± 0.0 | Purity (serum stability, radio-TLC) ([3]; incubation time 4 h): 100 ± 0.0 | Purity (serum stability, radio-TLC) ([3]; incubation time 24 h): 100 ± 0.0 | Purity (serum stability, radio-TLC) ([3]; incubation time 48 h): 100 ± 0.0 | stability in rat serum (in words) [3]: no measurable loss of radioactivity

O=C(O)CNCCN1CCN(CC(=O)O)CCN(CC(=O)O)CC1.[64Cu] [^64Cu-NE3TA]
Purity (serum stability, radio-TLC) ([3]; incubation time 1 h): 100 ± 0.0 | Purity (serum stability, radio-TLC) ([3]; incubation time 4 h): 100 ± 0.0 | Purity (serum stability, radio-TLC) ([3]; incubation time 24 h): 100 ± 0.0 | Purity (serum stability, radio-TLC) ([3]; incubation time 48 h): 100 ± 0.0 | stability in rat serum (in words) [3]: no measurable loss of radioactivity

O=C(O)CN1CCN(CCN(CC(=O)O)CC(=O)O)CCN(CC(=O)O)CCN(CC(=O)O)CC1.[177Lu] [^177Lu-DEPA]
Radiolabled Complex, in vitro serum stability (Table 1) ([4]; serum, 0 h): 100 | Radiolabled Complex, in vitro serum stability (Table 1) ([4]; serum, 0.5 h): 100 | Radiolabled Complex, in vitro serum stability (Table 1) ([4]; serum, 1 h): 100 | Radiolabled Complex, in vitro serum stability (Table 1) ([4]; serum, 2 h): 100 | Radiolabled Complex, in vitro serum stability (Table 1) ([4]; serum, 4 h): 100 | Radiolabled Complex, in vitro serum stability (Table 1) ([4]; serum, 6 h): 100 | Radiolabled Complex, in vitro serum stability (Table 1) ([4]; serum, 24 h): 100 | Radiolabled Complex, in vitro serum stability (Table 1) ([4]; serum, 48 h): 100 | Radiolabled Complex, in vitro serum stability (Table 1) ([4]; serum, 96 h): 100 | serum stability of 177Lu complex (in words) ([4]; serum, up to 96 h): remained intact without being dissociated in serum; also recorded: stable in serum

O=C([O-])CN1CCN(CC(=O)[O-])CCN(CC(=O)[O-])CCN(CC(=O)[O-])CC1.[177Lu+3].[H+] [^177Lu-DOTA, reference compound]
radioactivity released from the complex in serum ([4]; over 4 days): ~10% and 11% | Radiolabled Complex, in vitro serum stability (Table 1) ([4]; serum, 0 h): 100 | Radiolabled Complex, in vitro serum stability (Table 1) ([4]; serum, 0.5 h): 99.0 | Radiolabled Complex, in vitro serum stability (Table 1) ([4]; serum, 1 h): 100.1 | Radiolabled Complex, in vitro serum stability (Table 1) ([4]; serum, 2 h): 99.3 | Radiolabled Complex, in vitro serum stability (Table 1) ([4]; serum, 4 h): 97.0 | Radiolabled Complex, in vitro serum stability (Table 1) ([4]; serum, 6 h): 97.5 | Radiolabled Complex, in vitro serum stability (Table 1) ([4]; serum, 24 h): 98.2 | Radiolabled Complex, in vitro serum stability (Table 1) ([4]; serum, 48 h): 91.2 | Radiolabled Complex, in vitro serum stability (Table 1) ([4]; serum, 96 h): 89.6

Apo-N-NE3TA: ligand-transferin conjugate (apo) of N-NE3TA-NCS
IC50 [1]: 8.85 ± 1.43 µM

Holo-C-NE3TA: ligand-transferin conjugate (holo) of C-NE3TA-NCS
IC50 [1]: 7.03 ± 0.09 µM

Holo-N-NE3TA: ligand-transferin conjugate (holo) of N-NE3TA-NCS
IC50 [1]: 11.5 ± 0.21 µM

— patent US10189803B2, “Synthesis of therapeutic and diagnostic drugs centered on regioselective and stereoselective ring opening of aziridinium ions” (ILLINOIS INSTITUTE OF TECHNOLOGY, priority 2008, dated 2019)
